# Measurements from patent publication US12583866B2, “Pyrido[2,3-b][1,4]oxazines or tetrahydropyrido[2,3-b][1,4]oxazepines as IAP antagonists” (BEIGENE, LTD., priority 2020, dated 2026).
# Counter-ions that a name gives are not always drawn.
# What was measured:
# [1] = target: T1, recombinant human XIAP-BIR3 protein (Homo sapiens, UniProt P98170); assay: Recombinant human XIAP-BIR3 biochemical assay (HTRF, peptide displacement); settings: 3.7 nM XIAP-BIR3, 7.6 nM AbuRPF-K(5-Fam)-NH2 peptide, read-out: Protein binding IC50 (nM) XIAP
# T1 construct: recombinant human XIAP-BIR3 protein; purchased Reaction biology APT-11-374
# T1 sequence (P98170 241-356 limits assumed): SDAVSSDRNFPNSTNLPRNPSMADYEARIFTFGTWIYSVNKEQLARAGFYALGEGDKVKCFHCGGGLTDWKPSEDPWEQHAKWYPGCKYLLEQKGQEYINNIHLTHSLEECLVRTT
# How it was run: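 HTRF peptide displacement with 7.6 nM 5-Fam-labelled AbuRPF peptide, anti-6His Tb donor and 3.7 nM recombinant XIAP-BIR3. Protein and compound (10-point, 4-fold from 10 µM) were preincubated 1 h RT in HEPES pH 7.5 buffer before each addition, each 1 h. IC50 by four-parameter fit of the 520/490 nm ratio.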
# [2] = target: T2, recombinant human cIAP1-BIR3 protein (Homo sapiens, UniProt Q13490); assay: Recombinant human c-IAP1-BIR3 biochemical assay (HTRF, peptide displacement); settings: 1.2 nM cIAP1-BIR3, 3 nM AbuRPF-K(5-Fam)-NH2 peptide, read-out: Protein binding IC50 (nM) c-IAP1
# T2 construct: recombinant human cIAP1-BIR3 protein; purchased Reaction biology APT-11-370
# T2 sequence (Q13490 253-363 limits assumed): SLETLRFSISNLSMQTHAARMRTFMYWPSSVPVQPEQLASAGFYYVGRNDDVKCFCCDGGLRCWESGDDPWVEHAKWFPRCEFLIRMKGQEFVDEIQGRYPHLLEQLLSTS
# How it was run: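 HTRF peptide displacement: after 1 h compound pre-incubation (max 10 uM, 4-fold dilutions, 10 points) with 1.2 nM protein in HEPES pH 7.5 buffer, 3 nM 5-Fam-labelled AbuRPF-K peptide and Tb-anti-6His were each added for 1 h at room temperature. Inhibition taken from 520/490 nm ratio, fitted four-parameter logistic for IC50.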
# [3] = target: T3, recombinant human cIAP2-BIR3 protein (Homo sapiens, UniProt Q13489); assay: Recombinant human c-IAP2-BIR3 biochemical assay (HTRF, peptide displacement); settings: 3.7 nM cIAP2-BIR3, 3.7 nM AbuRPF-K(5-Fam)-NH2 peptide, read-out: Protein binding IC50 (nM) c-IAP2
# T3 construct: recombinant human cIAP2-BIR3 protein; purchased Reaction biology APT-11-372
# T3 sequence (Q13489 238-349 limits assumed): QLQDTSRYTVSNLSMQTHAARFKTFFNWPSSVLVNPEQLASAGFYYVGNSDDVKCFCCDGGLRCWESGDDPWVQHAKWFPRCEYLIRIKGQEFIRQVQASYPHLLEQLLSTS
# How it was run: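 HTRF peptide-displacement readout (ex337, em520/490 ratio) after sequential 1 h room-temperature steps: compound with 3.7 nM protein, then 3.7 nM 5-Fam-labelled AbuRPF peptide, then Tb-cryptate anti-6His antibody. Buffer pH 7.5 HEPES with NaCl, Tween-20, DTT; 10-point 4-fold dilutions from 10 uM; four-parameter logistic IC50.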
IC50 [1] [nM],IC50 [2] [nM],IC50 [3] [nM],SMILES
2.6,0.2,0.28,"C[C@@H]1CN(CC(=O)N2c3cc(Cc4ccc(F)cc4)c(C(=O)NCC4CCOCC4)nc3OC[C@@H]2C)[C@@H](CN2[C@H](C)COC[C@H]2C)CN1 [Example 77, (S)-1-(2-((2R,5R)-2-(((3R,5R)-3,5-dimethylmorpholino)methyl)-5-methylpiperazin-1-yl)acetyl)-7-(4-fluorobenzyl)-2-methyl-N-((tetrahydro-2H-pyran-4-yl)methyl)-2,3-dihydro-1H-pyrido[2,3-b][1,4]oxazine-6-carboxamide]"
5.1,0.24,0.43,"C[C@@H]1CN(CC(=O)N2c3cc(Cc4ccc(F)cc4)c(C(=O)N4CCC(F)(F)CC4)nc3OC[C@@H]2C)[C@@H](CN2[C@H](C)COC[C@H]2C)CN1 [Compound 103, 1-((S)-6-(4,4-difluoropiperidine-1-carbonyl)-7-(4-fluorobenzyl)-2-methyl-2,3-dihydro-1H-pyrido[2,3-b][1,4]oxazin-1-yl)-2-((2R,5R)-2-(((3R,5R)-3,5-dimethylmorpholino)methyl)-5-methylpiperazin-1-yl)ethan-1-one]"
12.5,0.27,0.51,"C[C@@H]1CN(CC(=O)N2c3cc(Cc4ccc(F)cc4)c(C(=O)NCCN(C)C)nc3OC[C@@H]2C)[C@@H](CN2[C@H](C)COC[C@H]2C)CN1 [Compound 97, (S)—N-(2-(dimethylamino)ethyl)-1-(2-((2R,5R)-2-(((3R,5R)-3,5-dimethylmorpholino)methyl)-5-methylpiperazin-1-yl)acetyl)-7-(4-fluorobenzyl)-2-methyl-2,3-dihydro-1H-pyrido[2,3-b][1,4]oxazine-6-carboxamide]"
23,1.5,3.2,"C[C@@H]1CN(CC(=O)N2CCOc3nc(C(N)=O)c(Cc4ccc(F)cc4)cc32)[C@@H](CN2CCOC[C@H]2C)CN1 [Compound 3, 7-(4-fluorobenzyl)-1-(2-((2R,5R)-5-methyl-2-(((R)-3-methylmorpholino)methyl)piperazin-1-yl)acetyl)-2,3-dihydro-1H-pyrido[2,3-b][1,4]oxazine-6-carboxamide formate]"
> 1000,> 1000,> 1000,"C[C@@H]1CN(CC(=O)N2CCCOc3ncc(Cc4ccc(F)cc4)cc32)[C@@H](CN2CCOC[C@H]2C)CN1 [Compound 18, 1-(8-(4-fluorobenzyl)-3,4-dihydropyrido[2,3-b][1,4]oxazepin-1(2H)-yl)-2-((2R,5R)-5-methyl-2-(((R)-3-methylmorpholino)methyl)piperazin-1-yl)ethan-1-one]"
28,0.15,0.27,"CC(C)OC[C@H]1COc2ncc(Cc3ccc(F)cc3)cc2N1C(=O)CN1C[C@@H](C)NC[C@@H]1CN1[C@H](C)COC[C@H]1C [Compound 39, 2-((2R,5R)-2-(((3R,5R)-3,5-dimethylmorpholino)methyl)-5-methylpiperazin-1-yl)-1-((S)-7-(4-fluorobenzyl)-2-(isopropoxymethyl)-2,3-dihydro-1H-pyrido[2,3-b][1,4]oxazin-1-yl)ethan-1-one]"
3.2,0.17,0.23,C[C@@H]1CN(CC(=O)N2c3cc(Cc4ccc(F)cc4)c(C(=O)NC4CC4)nc3OC[C@@H]2C)[C@@H](CN2[C@H](C)COC[C@H]2C)CN1 [Example 63]
25,0.34,0.52,"C[C@@H]1CN(CC(=O)N2c3cc(Cc4ccc(F)cc4)cnc3OC[C@@H]2C2CCCCC2)[C@@H](CN2CCOC[C@H]2C)CN1 [Compound 42, 1-((S)-2-cyclohexyl-7-(4-fluorobenzyl)-2,3-dihydro-1H-pyrido[2,3-b][1,4]oxazin-1-yl)-2-((2R,5R)-5-methyl-2-(((R)-3-methylmorpholino)methyl)piperazin-1-yl)ethan-1-one]"
4.3,0.16,0.24,CC(=O)Nc1nc2c(cc1Cc1ccc(F)cc1)N(C(=O)CN1C[C@@H](C)NC[C@@H]1CN1[C@H](C)COC[C@H]1C)[C@@H](C)CO2 [Compound 116]
41,2.6,5.75,"C[C@@H]1CN(CC(=O)N2CCOc3nc(C4(O)CC4)c(Cc4ccc(F)cc4)cc32)[C@@H](CN2CCOC[C@H]2C)CN1 [Compound 21, 1-(7-(4-fluorobenzyl)-6-(1-hydroxycyclopropyl)-2,3-dihydro-1H-pyrido[2,3-b][1,4]oxazin-1-yl)-2-((2R,5R)-5-methyl-2-(((R)-3-methylmorpholino)methyl)piperazin-1-yl)ethan-1-one]"
6,0.3,0.5,"C[C@@H]1CN(CC(=O)N2c3cc(Cc4ccc(F)cc4)c(CO)nc3OC[C@@H]2C)[C@@H](CN2CCOC[C@H]2C)CN1 [Compound 25, 1-((S)-7-(4-fluorobenzyl)-6-(hydroxymethyl)-2-methyl-2,3-dihydro-1H-pyrido[2,3-b][1,4]oxazin-1-yl)-2-((2R,5R)-5-methyl-2-(((R)-3-methylmorpholino)methyl)piperazin-1-yl)ethan-1-one]"
14,0.43,1.08,"C[C@@H]1CN(CC(=O)N2c3cc(Cc4ccc(F)cc4)c(C(N)=O)nc3OC[C@@H]2C)[C@@H](CN2CCOCC2(C)C)CN1 [Example 61, (S)-1-(2-((2R,5R)-2-((3,3-dimethylmorpholino)methyl)-5-methylpiperazin-1-yl)acetyl)-7-(4-fluorobenzyl)-2-methyl-2,3-dihydro-1H-pyrido[2,3-b][1,4]oxazine-6-carboxamide]"
6.9,0.13,0.18,"C[C@@H]1CN(CC(=O)N2c3cc(Cc4ccc(F)cc4)cnc3OC[C@@H]2COCc2ccccc2)[C@@H](CN2[C@H](C)COC[C@H]2C)CN1 [Compound 23, 1-((S)-2-((benzyloxy)methyl)-7-(4-fluorobenzyl)-2,3-dihydro-1H-pyrido[2,3-b][1,4]oxazin-1-yl)-2-((2R,5R)-2-(((3R,5R)-3,5-dimethylmorpholino)methyl)-5-methylpiperazin-1-yl)ethan-1-one]"
4.4,0.22,0.44,"CCNC(=O)c1nc2c(cc1Cc1ccc(F)cc1)N(C(=O)CN1C[C@@H](C)NC[C@@H]1CN1[C@H](C)COC[C@H]1C)[C@@H](C)CO2 [Example 65, (S)-1-(2-((2R,5R)-2-(((3R,5R)-3,5-dimethylmorpholino)methyl)-5-methylpiperazin-1-yl)acetyl)-N-ethyl-7-(4-fluorobenzyl)-2-methyl-2,3-dihydro-1H-pyrido[2,3-b][1,4]oxazine-6-carboxamide]"
23,0.25,0.32,"COC[C@H]1COc2ncc(Cc3ccc(F)cc3)cc2N1C(=O)CN1C[C@@H](C)NC[C@@H]1CN1[C@H](C)COC[C@H]1C [Compound 34, 2-((2R,5R)-2-(((3R,5R)-3,5-dimethylmorpholino)methyl)-5-methylpiperazin-1-yl)-1-((S)-7-(4-fluorobenzyl)-2-(methoxymethyl)-2,3-dihydro-1H-pyrido[2,3-b][1,4]oxazin-1-yl)ethan-1-one]"
140,9.9,25,"C[C@@H]1CN(CC(=O)N2c3cc(Cc4ccc(F)cc4)cnc3OCC23CC3)[C@@H](CN2CCOC[C@H]2C)CN1 [Compound 20, 1-(7′-(4-fluorobenzyl)-1′H,3′H-spiro[cyclopropane-1,2′-pyrido[2,3-b][1,4]oxazin]-1′-yl)-2-((2R,5R)-5-methyl-2-(((R)-3-methylmorpholino)methyl)piperazin-1-yl)ethan-1-one hydrochloride]"
18,0.7,1.1,"Cc1nc2c(cc1Cc1ccc(F)cc1)N(C(=O)CN1C[C@@H](C)NC[C@@H]1CN1CCOC[C@H]1C)CCO2 [Compound 5, 1-(7-(4-fluorobenzyl)-6-methyl-2,3-dihydro-1H-pyrido[2,3-b][1,4]oxazin-1-yl)-2-((2R,5R)-5-methyl-2-(((R)-3-methylmorpholino)methyl)piperazin-1-yl)ethan-1-one]"
4.2,0.2,0.27,COCCC(=O)Nc1nc2c(cc1Cc1ccc(F)cc1)N(C(=O)CN1C[C@@H](C)NC[C@@H]1CN1[C@H](C)COC[C@H]1C)[C@@H](C)CO2 [Compound 121]
9.5,0.11,0.17,"COC[C@H]1COc2nc(CO)c(Cc3ccc(F)cc3)cc2N1C(=O)CN1C[C@@H](C)NC[C@@H]1CN1[C@H](C)COC[C@H]1C [Compound 58, 2-((2R,5R)-2-(((3R,5R)-3,5-dimethylmorpholino)methyl)-5-methylpiperazin-1-yl)-1-((S)-7-(4-fluorobenzyl)-6-(hydroxymethyl)-2-(methoxymethyl)-2,3-dihydro-1H-pyrido[2,3-b][1,4]oxazin-1-yl)ethan-1-one]"
